Tested on: angiogenesis genes in dermal microvascular endothelial cells
Test: Real time RT-PCR of angiogenesis gene expression during endothelial tube formation
Format: cell-based
Conditions: 1 μM SM, 24 hours
Procedure: For gene expression studies, three independent experiments were run for each SM tested. 90.000 cells/well (6 wells/treatment) of dermal microvascular endothelial cells (Lonza, Walkersville, Md.) were seeded on polymerized GELTREX™ gel matrix (Invitrogen, Carlsbad, Calif.) in 24 well plates. Wells were immediately treated with the same volume of 1 μM SM or PBS. After 24 hours incubation at 37° C. and 5% CO2, cells were extracted using Cell Recovery Solution (BD Biosciences, San Jose, Calif., Cat. #354253). Total RNA was extracted with the RNeasy Mini Kit (Qiagen, Valencia, Calif., Cat. #74104), and retrotranscribed using […]® First-Strand reverse transcriptase (Invitrogen, Carlsbad, Calif., Cat. #11904-018). The real time PCR reactions were performed in an Opticon 2 cycler (MJ Research, Waltham, Mass.). Amplification was performed in a final volume of 25 μl, containing 2 μl cDNA (1:10 dilution from the reversed transcribed reaction) and 2 μl of primer mixture (10 μM each of forward and reverse primers). Samples were amplified as follows: after initial denaturation at 95 C for 2 minutes, reactions were run for 46 cycles at 95° C. for 30 seconds, 60° C. for 30 seconds, and 72° C. for 45 seconds. Fluorescence was measured in every cycle and a melting curve was run after the PCR by increasing temperature from 50 to 96° C. (in 0.5° C. increments). A defined single peak was obtained for all amplicons, thus confirming the specificity of the amplification.
The genes that were monitored were selected based on their relevance to the angiogenesis process. All experiments were done in triplicate. The results are shown in the volcano plots of FIG. 17. Log 2 fold-change is presented in the X-axis and log 10 P value in the Y-axis.

COC(=O)C1CC(=O)C(C(=O)OC)CC1=O (centres unmarked) [Compound 122567]
Log2 fold-change of gene expression: 1839: 1.0
Log2 fold-change of gene expression: 4247: 0.3
Log2 fold-change of gene expression: 5569: 0.8
Log2 fold-change of gene expression: 8131: 0.1
Log2 fold-change of gene expression: 9569: −2.2
Log2 fold-change of gene expression: 10988: 1.2
Log2 fold-change of gene expression: 23001: −0.5
Log2 fold-change of gene expression: 55332: −1.0
Log2 fold-change of gene expression: 57722: 0.1
Log2 fold-change of gene expression: 58488: 1.5
Log2 fold-change of gene expression: 90780: −1.9
Log2 fold-change of gene expression: 134265: −0.2
Log2 fold-change of gene expression: AKT1: −1.6
Log2 fold-change of gene expression: ANGPT1: 1.6
Log2 fold-change of gene expression: ANGPT2: −0.9
Log2 fold-change of gene expression: ANGPTL3: −1.7
Log2 fold-change of gene expression: ANGPTL4: −0.4
Log2 fold-change of gene expression: ANPEP: −1.2
Log2 fold-change of gene expression: ANTXR1: −3.5
Log2 fold-change of gene expression: APOE: 0.8
Log2 fold-change of gene expression: ARHGEF1: −5.0
Log2 fold-change of gene expression: Acvrl1: −1.3
Log2 fold-change of gene expression: Adcy4: −0.4
Log2 fold-change of gene expression: BAL1: 0.2
Log2 fold-change of gene expression: BMP1: 0.9
Log2 fold-change of gene expression: C1orf54: −3.4
Log2 fold-change of gene expression: CALD1: 2.3
Log2 fold-change of gene expression: CCL2: 2.5
Log2 fold-change of gene expression: CCL11: 0.6
Log2 fold-change of gene expression: CD248: 1.2
Log2 fold-change of gene expression: CDH5: −1.9
Log2 fold-change of gene expression: CENTD3: 1.1
Log2 fold-change of gene expression: CLIC1: 0.9
Log2 fold-change of gene expression: COL4A3: 1.9
Log2 fold-change of gene expression: COL18A1: 1.6
Log2 fold-change of gene expression: COMT: −1.5
Log2 fold-change of gene expression: CST4: 1.3
Log2 fold-change of gene expression: CTTNBP2NL: −0.9
Log2 fold-change of gene expression: CXCL3: 4.0
Log2 fold-change of gene expression: CXCL5: 4.3
Log2 fold-change of gene expression: CXCL6: 1.1
Log2 fold-change of gene expression: CXCL9: 1.6
Log2 fold-change of gene expression: CXCL10: 3.7
Log2 fold-change of gene expression: Calcr1: −4.0
Log2 fold-change of gene expression: Caskin2: −2.3
Log2 fold-change of gene expression: Ccbp2: 1.4
Log2 fold-change of gene expression: Cldn5: 0.0
Log2 fold-change of gene expression: DGKG: 2.0
Log2 fold-change of gene expression: DKK3: −1.9
Log2 fold-change of gene expression: DLL4: −8.7
Log2 fold-change of gene expression: DUT: −1.8
Log2 fold-change of gene expression: EFNA1: −0.3
Log2 fold-change of gene expression: EFNA3: −0.4
Log2 fold-change of gene expression: EFNB2: −4.0
Log2 fold-change of gene expression: EGF: −0.3
Log2 fold-change of gene expression: ENG: −1.7
Log2 fold-change of gene expression: EPHB4: −0.5
Log2 fold-change of gene expression: EREG: 1.9
Log2 fold-change of gene expression: ESAM1: −2.9
Log2 fold-change of gene expression: EXTL3: 0.3
Log2 fold-change of gene expression: Egf17: −2.6
Log2 fold-change of gene expression: Ehd4: −0.8
Log2 fold-change of gene expression: Entpd1: −0.3
Log2 fold-change of gene expression: Epas1: 0.9
Log2 fold-change of gene expression: EphB1: 0.8
Log2 fold-change of gene expression: Erg: 2.4
Log2 fold-change of gene expression: FGF1: 1.9
Log2 fold-change of gene expression: FGF2: −0.7
Log2 fold-change of gene expression: FGFR3: 1.2
Log2 fold-change of gene expression: FIGF: −0.1
Log2 fold-change of gene expression: FLT1: −4.4
Log2 fold-change of gene expression: Fgd5: −1.5
Log2 fold-change of gene expression: GPCR124: −3.7
Log2 fold-change of gene expression: GRRP1: −0.3
Log2 fold-change of gene expression: Grp116: −2.3
Log2 fold-change of gene expression: HAND2: 0.4
Log2 fold-change of gene expression: HGF: 1.3
Log2 fold-change of gene expression: HIF1A: −3.1
Log2 fold-change of gene expression: HPSE: −8.3
Log2 fold-change of gene expression: Hspa12b: −3.4
Log2 fold-change of gene expression: ID1: −0.2
Log2 fold-change of gene expression: ID3: −0.3
Log2 fold-change of gene expression: IFNA1: 1.1
Log2 fold-change of gene expression: IFNB1: 1.2
Log2 fold-change of gene expression: IFNG: 8.3
Log2 fold-change of gene expression: IGF1: −0.1
Log2 fold-change of gene expression: IL1B: −0.1
Log2 fold-change of gene expression: IL6: 14.4
Log2 fold-change of gene expression: IL8: 7.4
Log2 fold-change of gene expression: ITGAV: −2.7
Log2 fold-change of gene expression: ITGB3: −1.4
Log2 fold-change of gene expression: Icam1: 0.0
Log2 fold-change of gene expression: Icam2: 0.1
Log2 fold-change of gene expression: JAG1: 0.6
Log2 fold-change of gene expression: KDR: −2.3

— US9504729B2, “Antiangiogenic small molecules and methods of use” (The United States of America, as represented by the …, priority 2009, dated 2016)
